Source: article PMC6389703, “Identification of Biologically Active Ganoderma lucidum Compounds and Synthesis of Improved Derivatives That Confer Anti-cancer Activities in vitro” (Frontiers in Pharmacology, 2019)

Columns and labels:
MDA-MB-231 cells [1] = experiment: ApoTox-Glo Triplex assay, MDA-MB-231; format: cell-based, human
Protocol: (§1) Cells (9.5 × 10^4/well in 75 μL of fresh medium) were dispensed in 96-well black flat bottom (8807BC, Corning) plates. The cells were incubated for 12 h at 37°C and then treated with compounds (25 μL) for 24 h. DMSO was used as a negative control, and staurosporine was used as the positive control. […] Then, the Caspase-Glo® 3/7 Reagent was added; plates were mixed briefly by orbital shaking (300-500 rpm for ∼30 s), followed by an additional 30 min incubation at RT. Then luminescence, which correlates with caspase 3/7 activation, was recorded with a plate reader to […] apoptosis induction.

MCF10A cells = experiment: cells; format: cell-based
Protocol: Cell viability assays (MTT or PI staining assays) in SUM-149, SUM-190, MDA-MB-231, and MCF10A cells were performed as we previously described ([Suarez-Arroyo et al., 2016]).
(§2) For the CTG assay, 3 or 4 replicate assays were conducted for each experimental condition, and a minimum of 3 independent experiments were conducted for cellular assays. The mean luminescence of each experimental treatment group was normalized as a percentage of the mean intensity of untreated controls. EC50 values (μM) were calculated by Pipeline Pilot Software (Accelrys, Enterprise Platform, San Diego, CA, United States). EC50 values (μM) from the viability assay were calculated from dose response curve-fitting via non-linear regression by using GraphPad Prism (Version 7.0, San Diego, CA, United States). For cell viability, colony formation, cell-cycle progression, cell death, and western blot assays, the analyses were performed via one-way or two-way ANOVA with post-testing for each condition (concentration, cell cycle stage, apoptotic event, cell line) by using GraphPad Prism.

SUM-149 cells [2] = experiment: Cell cycle assay (PI, flow cytometry); format: cell-based, human; details: 48 h
Protocol: SUM-149 cells were treated for 48 h with EP, then collected and washed in 1X PBS. The cells (5 × 10^5) were fixed and permeabilized in 70% ethanol at -20°C until further analysis. To measure the DNA content, the cells were washed and resuspended in 150 μL of PBS buffer then incubated in 100 μL of 100 μg/mL RNase A (MilliporeSigma, Burlington, MA, United States) for 15 min at RT, then 250 μL of 50 μg/mL Propidium Iodide (MilliporeSigma) was added. Samples were incubated at RT for 10 min and analyzed on a BD FACS Canto II flow cytometer (BD Biosciences, San José, CA, United States). Data were analyzed by using FlowJo software (V10, FlowJo, LLC, Ashland, OR, United States).

MDA-MB-231 cells [3] = experiment: De novo in-cell protein synthesis (click assay); format: cell-based, human; details: 2 h; EP 20 μM
Protocol: First, 2.5 × 10^4 cells/well were seeded in 8-well μ-slides (Ibidi®, #80826) and incubated at 37°C for 12 h. The cells were treated with vehicle, compounds Ganoderic acid A or EP, or cycloheximide (positive control) for 2 h to determine protein synthesis as nascent proteins generated using Biovision’s EZClick^TM Global Protein Synthesis Assay Kit, (#K715-100, Milpitas, CA, United States). The assay includes a robust chemical method based on an alkyne containing o-propargyl-puromycin (OP-puro) probe, which stops translation by forming covalent conjugates with nascent polypeptide chains. Truncated polypeptides are rapidly turned over by the proteasome and can be detected based on the subsequent click reaction with a fluorescent azide. The reaction was conducted according to the manufacturer’s protocol. Cells were imaged at 20× with a Nikon C2 scanning confocal microscope, and the whole image montage was quantified by using Gen5 Software and Lionheart^TM FX Automated Microscope (BioTek, Winooski, VT, United States).

Uocb-1 cells = experiment: Cell Titer Glo viability assay, Uocb-1; format: cell-based; details: Homo sapiens, UoC-B1, 72-h treatment
Protocol: (§3) Either 1 × 10^3–4.8 × 10^3 or 4 × 10^2–1.2 × 10^3 cells were seeded to each well of 96- or 384-well white polystyrene flat-bottomed plates (3610 or 8804BC, Corning) in 100 μL or 30 μL media per well, respectively. The concentrations used were experimentally determined to ensure logarithmic growth during the duration of the experiment and prevent adverse effects on cell growth by DMSO exposure. The plates were incubated at 37°C in 5% CO2 for 24 h before treatment. Stock solutions of test compounds (10 mM in DMSO) in nine 3-fold serial dilutions were dispensed via pintool (Biomek). The final concentration of DMSO was 0.3% (v/v) in each well. […] Luminescence was recorded in an Envision plate reader (PerkinElmer).
as §2, with “For cell viability, colony formation, cell-cycle progression, cell death, and western blot assays, the analyses were performed via one-way or two-way ANOVA with post-testing for each condition (concentration, cell cycle stage, apoptotic event, cell line) by using GraphPad Prism.” left out

[4] = Incubation of EP with NAC, monitored by NMR and LC-MS; format: physicochemical; details: NAC in DMSO, 24 h at 37°C
SUM-190 cells = experiment: Cell viability assay, SUM-190; format: cell-based; details: Homo sapiens, SUM190; Figure 4E
Protocol: as §3, with “(PerkinElmer). […]” for “(PerkinElmer).”
as §2, with “For cell viability, colony formation, cell-cycle progression, cell death, and western blot assays, the analyses were performed via one-way or two-way ANOVA with post-testing for each condition (concentration, cell cycle stage, apoptotic event, cell line) by using GraphPad Prism.” left out

SUM-149 cells [5] = experiment: ApoTox-Glo Triplex assay, SUM-149; format: cell-based, human; details: SUM-149, 24 h
Protocol: as §1

SUM-149 cells [6] = experiment: Matrigel invasion assay (Transwell); format: cell-based, human; details: 72 h
Protocol: Cell migration and invasion were measured by using Corning® FluoroBlok^TM Cell Culture Inserts and performing BD BioCoat Matrigel invasion assays (BD Biosciences, San José, CA, United States) as described in [Martinez-Montemayor et al. (2011)] and [Suarez-Arroyo et al. (2016)].

Question: Which “cytotoxicity by membrane integrity” value (MDA-MB-231 cells [1]; MDA-MB-231) does the source give for CC(C)[C@@H](C)/C=C/[C@@H](C)[C@H]1CC[C@@H]2[C@]1(C)CC[C@H]1[C@]23C=C[C@]2(C[C@@H](O)CC[C@]12C)OO3 [EP, ergosterol peroxide] here?
Answer: Its value is “increased cytotoxicity”.

Question: And the “caspase 3/7 activity” value (MDA-MB-231 cells [1]; MDA-MB-231, 24 h)?
Answer: The value was “increase caspase 3/7 activity”.

Question: And the “viability (GF-AFC)” value (MDA-MB-231 cells [1]; MDA-MB-231, 24 h)?
Answer: The value was “decrease viability”.

Question: What about the “cytotoxicity in MCF10A non-cancerous mammary epithelial cells” value (MCF10A cells) of the same molecule?
Answer: The value was “did not induce cytotoxicity”.

Question: What about the EC50 (MCF10A cells; Homo sapiens, MCF-10A, PI staining, 72-h treatment) of the same molecule?
Answer: Its EC50 is greater than 100 µM.

Question: What about the “percentage of cells in G0” value (SUM-149 cells [2]; 20μM) of the same molecule?
Answer: The value was 1.7%.

Question: What about the “percentage of cells in G1” value (SUM-149 cells [2]; 20μM) of the same molecule?
Answer: Its value is 81%.

Question: And the “percentage of cells in G2/M” value (SUM-149 cells [2]; 20μM)?
Answer: Its value is 9.8%.

Question: And the “percentage of cells in S” value (SUM-149 cells [2]; 20μM)?
Answer: The value was 5.4%.

Question: And the “increase in percentage of cells in G1 phase” value (SUM-149 cells [2]; vs vehicle)?
Answer: The value was roughly 20%.

Question: And the “reduction of the percentage of cells in G2/M” value (SUM-149 cells [2]; vs vehicle)?
Answer: The value was roughly 10%.

Question: And the “de novo protein synthesis inhibition” value (MDA-MB-231 cells [3])?
Answer: The value was “do not inhibit”.

Question: What about the EC50 (Uocb-1 cells) of the same molecule?
Answer: The EC50 was 13.6 µM.

Question: What about the “reaction of the endoperoxide motif with NAC” value [4] of the same molecule?
Answer: The value was “no observable olefin migration or opening of the endoperoxide was detected”.

Question: What about the EC50 (SUM-190 cells) of the same molecule?
Answer: The EC50 was 43 µM.

Question: And the “caspase 3/7 activity” value (SUM-149 cells [5])?
Answer: The value was “increase caspase 3/7 activity”.

Question: And the “viability (GF-AFC)” value (SUM-149 cells [5])?
Answer: Its value is “decrease viability”.

Question: And the invading cells (SUM-149 cells [6]; 10 μM)?
Answer: The invading cells was “significant reduction”.

Question: And the decrease in invasion (SUM-149 cells [6]; 15 μM)?
Answer: Its decrease in invasion is 43%.
